Results on 6 compounds are retold here after patent US7087248B2, “Pharmaceutical component based on human parathyroid hormone and a pharmaceutical composition for intranasal administration comprising the component” (Daiichi Asubio Pharma Co., Ltd., priority 2000, dated 2006).

The first data set concerns nasal cavity. The data set can be described thus: Sensory test (1): odor and irritation evoked by nasal spraying. The conditions noted are these: 0.6 w/v % aqueous solution sprayed into the nasal cavity; four healthy normal adult males. Here is the method:
As the control, physiological saline was used.
Then, aqueous solutions of various organic acids were prepared, in order to identify the factors responsible for the odor and irritation the preparation evokes when it is applied in the nasal cavity. The organic acid employed included acetic acid, citric acid and tartaric acid; oxalic acid; malic acid; phthalic acid; ascorbic acid; adipic acid; and glycolic acid.
Prepared were 0.1 v/v %, 0.2 v/v %, 0.3 v/v % and 0.6 v/v % aqueous solutions of acetic acid, and 0.6 w/v % aqueous solutions of citric acid, tartaric acid, oxalic acid, malic acid, phthalic acid, ascorbic acid, adipic acid, and glycolic acid. The solution was sprayed into the nasal cavity; and the odor and irritation were assessed in the same manner as above (testers consisting of four healthy normal adult males).
In the same manner as above, the test solution was applied in the nasal cavity, and the odor and irritation evoked thereby were assessed (testers consisting of 12 healthy normal adult males).
As for `O=C1O[C@H]([C@@H](O)CO)C(O)=C1O` [Ascorbic acid], the Irritability entry is “the same with that from physiological saline and +”.
The same measure, in the same setting: the value for `O=C(O)CO` [Glycolic acid] was “the same with that from physiological saline and +”; that for `O=C(O)CC(O)C(=O)O` (stereo not drawn) [Malic acid] was “++++”; that for `O=C(O)C(=O)O` [Oxalic acid] was “++++”.

The data set is the same for the next values; noted with them: in vivo.
Turning to `O=C(O)c1ccccc1C(=O)O` [Phthalic acid], the Irritability entry is listed as “+++”.
Still for that read-out and setting: under `O=C(O)C(O)C(O)C(=O)O` (stereo not drawn) [Tartaric acid] stands “++++”.
